Measurements published in patent publication US7301020B2, “Macrolide analogs and methods for identifying same” (priority 2003, dated 2007).
Where “and” joins values, the source holds several entries; their conditions need not be identical. Equal values may be shown once. Entries after “also recorded” stand apart in the source; their conditions may differ.

What was measured:
G-actin = molecular target: T1, G-actin (Oryctolagus cuniculus, UniProt P68135); assay: Prodan-actin polymerization assay; type: biochemical, rabbit; settings: stoichiometric binding conditions
T1 construct: F-actin is purified from rabbit skeletal muscle using a standard protocol; from tissue; host or cells: rabbit skeletal muscle
Procedure: FIG. 5: Time course for G-actin polymerization. Prodan-labeled G-actin is mixed to a final concentration of 5 μM with a pre-formed complex of G-actin-KBC at the following concentrations: a: 0 nM; b: 1 nM; c: 5 nM; d: 10 nM; e: 20 nM; f: 50 nM; g: 250 nM) and the polymerization reaction initiated by the addition of KCl and MgCl2 to 0.1 M and 2 mM respectively at 20°. Excitation at 385 nm and Emission at 465 nm.
Prodan-Actin Polymerization assay The fluorescence emission spectrum of a 5 μM solution of Prodan-labeled G-actin is recorded in G-buffer. Polymerization is initiated by adding KCl and MgCl2 to 100 mM and 2 mM respectively and the time course of the reaction is monitored continuously over a 60-minute period time by recording the emission intensity at 465 nm. In other experiments the progress of actin polymerization is determined by recording the Prodan-actin emission spectrum at defined times during the reaction.
The G-actin-KabC complex inhibits actin polymerization by capping the (+)-end of the filament. […] Adding KCl and MgCl2 to 100 mM and 2 mM respectively polymerizes this G-actin mixture and the progress of the reaction is monitored by the increase in Prodan-actin fluorescence at 465 nm (FIG. 5; Marriott et al, 1988). […]

NBT-II cells = assay: Effect of macrolides on NBT-II cells (live cell microscopy); type: cell-based, rat
Procedure: FIG. 7: Effect of KabC on NBT-II cells. NBT-II cells are imaged after 16 hours of drug treatment. KabC concentrations: (A), Control; (B), 10 nM; (C), 100 nM and (D), 1000 nM.
Cell Culture: Rat bladder NBT-II carcinoma cells and mouse NIH 3T3 fibroblast cells are maintained and treated with external drugs as described in Choidas et al (1998).
Live cell microscopy: A multi-model microscope workstation was used to image phase contrast and fluorescence images of living cells (Choidas et al, 1998). Cells are maintained at 37° in a Hepes based culture medium in a Bioptechs cell perfusion chamber (Choidas et al, 1998).

Prodan-G-actin = Prodan-G-actin (Oryctolagus cuniculus, UniProt P68135); assay: Kinetic analysis of binding to Prodan-G-actin (stopped-flow and slow phase); parameters: F-actin is purified from rabbit skeletal muscle using a standard protocol; Prodan (Acrylodan) fluorophore, chemical label on the thiol of Cys374; from tissue; host or cells: rabbit skeletal muscle; species or system rabbit
Procedure: FIG. 3: Kinetic analyses of KabC binding of Prodan labeled G-actin. (A-B). Prodan-actin (0.1 μM) and KabC, loaded into separated syringes, were rapidly mixed within ˜1 msec dead-time. The concentrations of KabC were 0.0 μM (a), 1.0 μM (b), 1.5 μM (c), 2.0 μM (d) and 2.5 μM (data not shown), respectively. The decreases in emission intensity were well fitted with single exponential functions to determine the observed rate, kobs. The observed rates are plotted as a function of the [KabC] in panel (B).
Kinetic analysis of binding reactions. The kinetics of the KabC interaction with Prodan-actin is determined, using an Applied Photophysics SX.18MV Stopped-flow spectrometer, by following the decrease in the emission intensity of Prodan-actin at 25° C. Prodan was excited at 385 nm and emission was collected with a 470 nm (+/−5 nm) band-pass filter. In all cases the decrease in emission intensity was best fit with a single exponential function, which was then used to determine the observed rate, kobs. Kinetic constants of on rate (kon) and off rate (koff) were calculated according to the following equation: kobs=kon[KabC]+koff. The kinetics of the slower binding step observed in the interaction of KabC with Prodan-G-actin interaction is measured by measuring the ratio of fluorescence signals at 465 nm and 530 nm. The decay of this ratio is fit using a single exponential rate.

In the case of Kabiramide C [KabC], the actin monomer sequestering (G-actin) is reported as “sequester actin monomers and raise the critical concentration for actin polymerization”, the “concentration at which cytotoxic effects are seen” value (NBT-II cells) is reported as > 10 nM and the “cytotoxic activity on NBT II epithelia cells” value (NBT-II cells) is reported as “concentration dependent cytotoxic activity”. For the same substance, the cell phenotype (NBT-II cells; 10 nM, >12 hours) was “fail to complete cytokinesis and are immotile”, the cell phenotype (NBT-II cells; 100 nM) was “the cells lose control of contractile functions and have enlarged vesicles” and the cell phenotype (NBT-II cells; 1 μM or higher) was “complete breakdown of their actin cytoskeleton and die within a few hours”. The “time to cell death” value (NBT-II cells; 1000 nM) was 8˜12 hours, the cell phenotype (NBT-II cells; 10˜100 nM) was “an increase in the number of blebs, a breakdown in the adherens junction and a cytokinesis defect; also recorded: cytoskeleton-linked phenotypes” and the “binding steps in reaction with G-actin” value (Prodan-G-actin) was “two-step reaction”. The koff (Prodan-G-actin; Prodan-actin 0.1 μM, Y-intercept of kobs vs [KabC]) was 5.6 s⁻¹, the kon (Prodan-G-actin; Prodan-actin 0.1 μM, slope of kobs vs [KabC]) was 5.45e+07 M⁻¹ s⁻¹ and the “rate of second, slower phase of G-actin binding” value (Prodan-G-actin; decrease at 465 nm relative to red edge) was 0.008 s⁻¹ and 0.005 s⁻¹. For the same substance, the “rate of primary binding event” value (Prodan-G-actin; fluorescence quenching of Prodan-actin) was 30 s⁻¹ and the Kd (Prodan-G-actin; koff/kon, read-out: dissociation constant (Kd) from kinetic constants) was ~100 nM.
